According to patent US6967196B1, “Sulfonamide compounds and uses thereof” (Bristol-Myers Squibb Company, priority 1999, dated 2005):
Where a name gives a salt, the structure may show the parent alone. Read-outs that look alike come from different tables or passages of the source. Values belong to the compound of their own block, whether it stands above or below them.

Tested on: amyloid β production in transfected H4 (human neuroglioma) cells stably expressing APP constructs
Assay: In vitro cell-based assay of inhibitors of amyloid β production (ELISA)
Conditions: amyloid β in medium by ELISA
Description: In Vitro Cell-Based Assay of Inhibitors of Amyloid β Production
Transfected H4 (human neuroglioma) cells stably expressing APP constructs are used to identify and assess inhibitors of Aβ production. In brief, cells lines are exposed to compounds, and the effect of each compound on amyloid β production is determined by measuring the amount of amyloid β produced using an enzyme linked immunosorbent assay (ELISA) that detects amyloid β (see, for example, Seubert et al., (1992) Nature, 359:325-327).
Transfected cells that stably express wild-type and variant forms of APP are plated in 96-well format plates at a density sufficient for the rapid detection of the secreted amyloid β (experimentally predetermined for a particular stable cell population). Cells are plated at least six hours prior to the introduction of the test compound at which time the growth medium is replaced by fresh medium containing the compound to be tested. All synthetic agents are initially screened at doses ranging from 10-100 μM. Higher dilutions of agents can be used to minimize cytotoxicity. Incubation of cells with a test compound continues for approximately 16 hours at which time aliquots of medium from each well are removed and assayed for amyloid β.
ELISA is carried out by methods known in the art (see, e.g., Haass et al., Antibodies: A Laboratory Manual, Harlow and lane, Editors, Cold Spring Harbor Press, 1988) The capture antibody is typically a mouse monoclonal (IgG1/kβ-APPa) which recognizes the carboxyl terminal epitope of amyloid β. The specificity of the capture antibody insures measurement of amyloid β without interference from other secreted APP fragments that share amino acid sequence (amyloid β 1-16) homology with amyloid β but lack the carboxy-terminal region. The detecting antibody is typically an affinity-purified rabbit polyclonal antibody that is specific for the amino terminus of amyloid β.
Results from test compounds are compared to results obtained when cells are treated with control agents. Amyloid β levels are determined by comparison to a standard curve obtained by subjecting a range of known amounts of amyloid β to the ELISA.
A compound is identified as “active” when it inhibits cellular production of amyloid β relative to levels in control samples by at least 50% at the initial tested concentration without significant cytotoxicity. Active compounds are then assayed in dose-response experiments to determine the lowest dose of compound necessary for inhibition of amyloid β production.

[1] = transfected H4 cells stably expressing APP, approximately 16 hours incubation, read-out: ACTIVITY (IC50, inhibition of amyloid β production)
[2] = Homo sapiens, 16 h, transfected H4 cells stably expressing APP, approximately 16 hours incubation, read-out: ACTIVITY (IC50, inhibition of amyloid β production)
[3] = transfected H4 cells stably expressing APP, approx. 16 h incubation, read-out: ACTIVITY (IC50, inhibition of amyloid β production)
[4] = Table B, transfected H4 cells stably expressing APP, approximately 16 hours incubation, read-out: ACTIVITY (inhibitory concentration IC50, inhibition of amyloid β production)
[5] = Homo sapiens, 16 h, transfected H4 cells expressing APP, approximately 16 hours incubation, read-out: ACTIVITY (IC50, inhibition of amyloid β production)
[6] = transfected H4 cells stably expressing APP constructs, approximately 16 hours incubation, read-out: ACTIVITY (IC50, inhibition of amyloid β production)

Compound: N-{3-[2-(1-{3-[2-(1-{[(4-chlorophenyl)sulfonyl]-2,5-difluoroanilino}ethyl)phenoxy]butyl}-2-cyclohexyl-N-methylacetamide [Example 686]
IC50 [3]: 0.1 to 0.5 µM

Compound: CC(C)C[C@H](NC(=O)CCCC[C@@H](C)N(c1cc(Cl)ccc1F)S(=O)(=O)c1ccc(Cl)cc1)C(=O)O [Example 548, (R)-4-Chloro-N-(5-chloro-2-fluorophenyl)-N-[6-[N-(S)-[1-(carboxy)-3-methylbutyl]amino]-1-methyl-6-oxohexyl]benzenesulfonamide]
IC50 [3]: 0.1 to 0.5 µM

Compound: O=[N+]([O-])c1cc(Cl)ccc1COC1CCCCO1 (stereo not drawn) [Example 2, 4-Chloro-2-nitro-1-[[(tetrahydro-2H-pyran-2-yl)oxy]methyl]benzene]
IC50 [4]: ≤ 0.025 µM

Compound: CC(c1ccccc1OCCN(C)C(=O)C(F)(F)C(F)(F)C(F)(F)F)N(c1cc(F)ccc1F)S(=O)(=O)c1ccc(Cl)cc1 (stereo not drawn) [Example 796, N-{2-[2-(1-{[(4-chlorophenyl)sulfonyl]-2,5-difluoroanilino}ethyl)phenoxy]ethyl}-2,2,3,3,4,4,4-heptafluoro-N-methylbutanamide]
IC50 [3]: 0.1 to 0.5 µM

Compound: CN1CCCC1CCOc1ccccc1CN(c1ccccc1)S(=O)(=O)c1ccc(Cl)cc1 (stereo not drawn) [Example 962, 4-chloro-N-{2-[2-(1-methyl-2-pyrrolidinyl)ethoxy]benzyl}-N-phenylbenzenesulfonamide hydrochloride]
IC50 [2]: > 0.5 µM

Compound: C[C@H](c1ccccc1COC(=O)NCc1ccco1)N(c1cc(F)ccc1F)S(=O)(=O)c1ccc(Cl)cc1 [Example 667, 2-((1R)-1-{[(4-chlorophenyl)sulfonyl]-2,5-difluoroanilino}ethyl)benzyl 2-furylmethylcarbamate]
IC50 [3]: 0.1 to 0.5 µM

Compound: C[C@H](CCCN1CCC(S(C)(=O)=O)CC1)N(c1cc(Cl)ccc1Cl)S(=O)(=O)c1ccc(Cl)cc1 [Example 1126, 4-chloro-N-(2,5-dichlorophenyl)-N-[4-[(4-methylsulfonyl)-1-piperidinyl]-1(R)-methylbutyl]benzenesulfonamide]
IC50 [6]: 0.05 to 0.1 µM

Compound: 2,2,2-trichloro-N-{3-[2-({[(4-chlorophenyl)sulfonyl]-2,5-difluoroanilino}ethyl)phenoxy]propyl(methyl)carbamate [Example 876]
IC50 [1]: 0.1 to 0.5 µM

Compound: N-{4-[2-(1-{[(4-chlorophenyl)sulfonyl]-2,5-difluoroanilino}ethyl)phenoxy]butyl}-N-ethylbenzamide [Example 767]
IC50 [3]: 0.1 to 0.5 µM

Compound: CC(C)[C@H](NC(=O)CCCC[C@@H](C)N(c1cc(Cl)ccc1F)S(=O)(=O)c1ccc(Cl)cc1)C(=O)O [Example 547, (R)-4-Chloro-N-(5-chloro-2-fluorophenyl)-N-[6-[N-(S)-[1-(carboxy)-2-methylpropyl]amino]-1-methyl-6-oxohexyl]benzenesulfonamide]
IC50 [3]: 0.1 to 0.5 µM

Compound: O=S(=O)(c1ccc(Cl)cc1)N(Cc1ccccc1OCCCN1CCC(CO)CC1)c1ccccc1 [Example 922, 4-chloro-N-(2-{3-[4-(hydroxymethyl)-1-piperidinyl]propoxy}benzyl)-N-phenylbenzenesulfonamide hydrochloride]
IC50 [2]: > 0.5 µM

Compound: C[C@H](CCCS(C)(=O)=O)N(c1cc(Cl)ccc1Cl)S(=O)(=O)c1ccc(Cl)cc1 [Example 1162, 4-chloro-N-[2,5-dichlorophenyl]-N-[1(R)-methyl-(4-methylsulfonyl]butyl]benzenesulfonamide]
IC50 [6]: ≤ 0.025 µM

Further lines, results first:

IC50 [1]: 0.1 to 0.5 µM
Compound: 3,4-dichloro-N-{3-[2-(1-{[(4-chlorophenyl)sulfonyl]-2,5-difluoroanilino}ethyl)phenoxy]propyl}-N-methylbenzamide [Example 847]

IC50 [2]: > 0.5 µM
Compound: CSc1ccc(N(Cc2ccccc2OCCCN2CCCCC2)S(=O)(=O)c2ccc(Cl)cc2)cc1 [Example 1019, 4-chloro-N-[4-(methylsulfanyl)phenyl]-N-{2-[3-(1-piperidinyl)propoxy]benzyl}benzenesulfonamide hydrochloride]

IC50 [1]: 0.1 to 0.5 µM
Compound: N-{2-[2-(1-{[(4-chlorophenyl)sulfonyl]-2,5-difluoroanilino}ethyl)phenoxy]ethyl}-N-methyltetradecanamide [Example 854]

IC50 [5]: 0.1 to 0.5 µM
Compound: C[C@H](C(=O)NC(C)(C)CO)N(c1cc(Cl)ccc1F)S(=O)(=O)c1ccc(Cl)cc1 [Example 1344]

IC50 [2]: > 0.5 µM
Compound: O=S(=O)(c1ccc(Cl)cc1)N(Cc1ccccc1OCCCNC1CCCCC1)c1ccccc1 [Example 996, 4-chloro-N-{2-[3-(cyclohexylamino)propoxy]benzyl}-N-phenylbenzenesulfonamide hydrochloride]

IC50 (transfected H4 cells stably expressing APP, approximately 16 hours incubation, Table B, read-out: ACTIVITY (IC50, inhibition of amyloid β production)): 0.1 to 0.5 µM
Compound: C[C@H](c1ccc(F)cc1CCCC(=O)O)N(c1cc(F)ccc1F)S(=O)(=O)c1ccc(Cl)cc1 [Example 494, 4-[2-((1R)-1-{[(4-chlorophenyl)sulfonyl]-2,5-difluoroanilino}ethyl) 5-fluorophenyl]butanoic Acid]

IC50 [2]: > 0.5 µM
Compound: CC(COc1ccccc1CN(c1ccccc1)S(=O)(=O)c1ccc(Cl)cc1)N1CCC1 (stereo not drawn) [Example 918, N-{2-[2-(1-azetidinyl)propoxy]benzyl}-4-chloro-N-phenylbenzenesulfonamide hydrochloride]

IC50 [2]: > 0.5 µM
Compound: Cc1cccc(N(Cc2ccccc2OCCCN2CCCCC2)S(=O)(=O)c2ccc(Cl)cc2)c1 [Example 919, 4-chloro-N-(3-methylphenyl)-N-{2-[3-(1-piperidinyl)propoxy]benzyl}benzenesulfonamide hydrochloride]

IC50 [2]: > 0.5 µM
Compound: O=S(=O)(c1ccc(Cl)cc1)N(Cc1ccccc1OCCCN1CCCCC1)c1cc(Cl)ccc1O [Example 887, 4-chloro-N-(5-chloro-2-hydroxyphenyl)-N-{2-[3-(1-piperidinyl)propoxy]benzyl}benzenesulfonamide hydrochloride]

IC50 [4]: ≤ 0.025 µM
Compound: C[C@H](CCCC(=O)OC(C)(C)C)N(c1cc(Cl)ccc1Cl)S(=O)(=O)c1ccc(Cl)cc1 [Example 35, 1,1-dimethylethyl(5R)-5-[(2,5-dichlorophenyl)-[(4-chlorophenyl)sulfonyl]-amino]hexanoate]

IC50 [3]: 0.1 to 0.5 µM
Compound: 2-({[(4-chlorophenyl)sulfonyl]-2,5-difluoroanilino}methyl)phenyl acrylate [Example 681]

IC50 [3]: 0.1 to 0.5 µM
Compound: N-{3-[2-(1-{[(4-chlorophenyl)sulfonyl]-2,5-difluoroanilino}ethyl)phenoxy]propyl}-3-fluoro-N-methylbenzamide [Example 699]

IC50 [3]: 0.1 to 0.5 µM
Compound: S-methyl 2-[2-(1-{[(4-chlorophenyl)sulfonyl]-2,5-difluoroanilino}ethyl)phenoxy]ethyl(ethyl)thiocarbamate [Example 771]

IC50 [1]: 0.1 to 0.5 µM
Compound: N-{3-[2-({[(4-chlorophenyl)sulfonyl]-2,5-difluoroanilino}methyl)phenoxy]propyl}-N-methyl-1-naphthamide [Example 821]

IC50 [2]: 0.1 to 0.5 µM
Compound: O=S(=O)(c1ccc(Cl)cc1)N(Cc1ccccc1OCCCN1CCCCC1)C1CCCCC1 [Example 852, 4-chloro-N-cyclohexyl-N-{2-[3-(1-piperidinyl)propoxy]benzyl}benzenesulfonamide hydrochloride]

IC50 (Homo sapiens, 16 h, transfected H4 cells stably expressing APP, approx. 16 h incubation, read-out: ACTIVITY (IC50, inhibition of amyloid β production)): 0.1 to 0.5 µM
Compound: CCOc1ccc(C(=O)N2CCCCC2CCOc2ccccc2CN(c2cc(F)ccc2F)S(=O)(=O)c2ccc(Cl)cc2)cc1 (stereo not drawn) [Example 648, 4-chloro-N-(2,5-difluorophenyl)-N-{2-[2-[1-(4-ethoxybenzoyl)-2-piperidinyl]ethoxy}benzyl)benzenesulfonamide]

IC50 [5]: > 0.5 µM
Compound: C[C@H](C(=O)NCCN1CCOCC1)N(c1cc(Cl)ccc1F)S(=O)(=O)c1ccc(Cl)cc1 [Example 1301]

IC50 (Homo sapiens, 16 h, transfected H4 cells stably expressing APP constructs, approximately 16 hours incubation, read-out: ACTIVITY (IC50, inhibition of amyloid β production)): 0.05 to 0.1 µM
Compound: COC(=O)NCCC[C@@H](C)N(c1cc(Cl)ccc1Cl)S(=O)(=O)c1ccc(Cl)cc1 [Example 1131, 4-chloro-N-(2,5-dichlorophenyl)-N-[4-[[(methoxy)carbonyl]amino]-1-methylbutyl]benzenesulfonamide]
